From BindingDB's records for doi:10.1016/j.bmcl.2009.10.049 (Wyeth Research, 2009)

Target: 3-phosphoinositide-dependent protein kinase 1 (Homo sapiens) (UniProt O15530)
Test: Inhibition of PDK1

IC50: > 2 µM
SMILES: CN(C)Cc1ccc(-c2cnn3c(-c4cccc(NC(=O)c5cccc(C(F)(F)F)c5)c4)ccnc23)cc1 [N-[3-(3-{4-[(dimethylamino)methyl]phenyl}pyrazolo[1,5-a]pyrimidin-7-yl)phenyl]-3-(trifluoromethyl)benzamide]
